For series [1], the system named is amyloid plaques in cortex and hippocampus. As to the kind of experiment: Amyloid depositions and plaque load (6E10 IHC, ThioflavinS) in hAPP Tg mice. The series is classed as in vivo, mouse. The procedure: a) METHODS • i) Introduction • The study was designed to evaluate the efficacy of the test substance (XG-102, SEQ ID NO: 233) on behavioral, biochemical and histological markers using 5 months (±2 weeks) old female hAPP Tg mice. Therefore, mice were treated every two or three weeks up to 4 months and in the end of the treatment period behavior was evaluated in the Morris Water Maze. At sacrifice brain, CSF and blood were collected. Aβ40 and Aβ42 levels were determined in four different brain homogenate fractions as well as in CSF of Tg mice. Plaque load was quantified in the cortex and the hippocampus of 8 Tg animals per treatment group.
iv) Treatment • […] female hAPP transgenic mice were treated with either 0.1 mg/kg b.w./every two weeks or 10 mg/kg b.w./every three weeks of the test substance XG-102 (SEQ ID NO: 233) in two different dosages (n=12/group) or treated with the vehicle (n=12) s.c. once every three weeks over four months.
viii) Evaluation of Brain Morphology • Brain tissues of all Tg animals investigated were handled in exactly the same way to avoid bias due to variation of this procedure. From brain halves of 24 Tg mice (8 of each group) 20 cryo-sections per layer (altogether 5 layers), each 10 μm thick (Leica CM 3050S) were sagittally cut and 5 (one from each layer) were processed and evaluated for quantification of plaque load. The five sagittal layers corresponded with the FIGS. 104 to 105, 107 to 108, 111 to 112, 115 to 116 and 118 to 119 according to the morphology atlas “The Mouse Brain” from Paxinos and Franklin (2nd edition). The first layer was specified by the requirement to include the whole hippocampus with it's regions CA1, CA2, CA3, GDlb and GDmb. Immunoreactivity was quantitatively evaluated in the hippocampus and in the cortex using the monoclonal human Aβ-specific antibody 6E10 (Signet) as well as ThioflavinS staining. Remaining brain hemispheres or tissue not used were saved and stored at JSW CNS until the end of the project.
b) Evaluation • i) Behavior • In the Morris Water Maze trials length of swimming path, escape latencies, swimming speed and in the probe trial crossings over the former platform position and the time spent in each quadrant of the pool were measured for each Tg animal with a special computer software. • ii) Biochemical Evaluation • From all Tg mice CSF samples as well as samples from the brain preparations were analyzed with commercially available Aβ1-40 and Aβ1-42 ELISAs. Measurements of adequate standards were performed concurrently. Samples from brain preparations were analyzed in duplicates. […]

The subject of series [2] is primary cultured macrophages. As to the kind of experiment: Incorporation of XG-102 into primary cultured macrophages, antibody detection. The note with it: incubated and extensively washed; specific antibody. The class given is cell-based. The procedure:
FIG. 5: (A): Primary cultured macrophages were incubated with XG-102 (SEQ ID NO: 233) and extensively washed. […] (B): Mice were injected i.v. with 0.1 mg/kg FITC-D-TAT (SEQ ID NO: 4 plus FITC) and were sacrificed 24 hours later with PAF perfusion through the heart. Slices were obtained after cryoprotection using cryostat.

Series [3] concerns db/db mice. In words: db/db mice model of type 2 diabetes, chronic treatment. The series is classed as in vivo, mouse. As to conditions: 10 mg/kg.
Series [4] has as its system TNBS induced colitis. In words: TNBS induced colitis (IBD study). The class given is in vivo. The procedure:
b) Constitution of Test Groups and Dose Levels • The table below lists the experimental groups comprising the study.
c) Test Procedures • Colitis was induced by administration of TNBS dissolved in 50% Ethanol • All animals were then treated with doses of XG-102 in the range of 0.1 to 1000 μg/kg, […], as a single or repeated daily doses (see above).
d) Observations and Examinations • i) Clinical Signs • Throughout the duration of the above experiment, careful clinical examinations were carried out and recorded. Observations included changes external appearance, e.g. of the skin, fur, eyes, mucous membranes, occurrence of secretions and excretions (e.g. diarrhea), and autonomic activity. Changes in gait, posture and response to handling, as well as the presence of bizarre behavior, tremors, convulsions, sleep and coma were also noted. • ii) Body Weights • Determination of individual body weight of animals was made on a daily basis. • iii) Clinical Assessment of Colitis • Body weight, stool consistency and bleeding per rectum were all recorded daily and served as the parameters of disease severity score:
• iv) Gross Pathology of the Colon • On the last day of the experiment, animals were euthanized and the colon was removed for gross pathology evaluation according to the following score: […]

“Also recorded” adds a separate entry of the source. Ends that are not written are not given here.

For “dqsrpvqpflnIttprkprpprrrqrrkkrg (DQSRPVQPFLNLTTPRKPRPPRRRQRRKKRG; not fully specified (some residues); printed as dqsrpvqpflnIttprkprpprrrqrrkkrg) [XG-102]”, in series [1] (0.1 mg/kg), the “mean plaque size (ThioflavinS, hippocampus)” value is recorded as “reduced mean plaque size, however this effect did not reach significance level in the ANOVA”. Further, in series [1] (10 mg/kg), the “6E10 IR plaque load (human amyloid)” value is “increased versus vehicle; also recorded: a tendentious increase of human amyloid beta”. For the same substance, the “hippocampal ThioflavinS positive plaques (number, area percentage)” value in series [1] (0.1 and 10 mg/kg) is “a negatively dose dependent reduction; also recorded: dose dependently reduced”. In series [1] (mouse, in vivo), the “beta-sheet structures in plaques (6E10 and ThioflavinS quantifications)” value is “a selective reduction of beta-sheet structures in the center of the plaques”; the “cortical ThioflavinS plaque load” value is “not given for cortical plaques; also recorded: cortical plaque load remained unchanged”. In series [2], the incorporation into cells entry is on record as “strongly incorporated into primary macrophages”. The “plasma levels of insulin, MCP-1, IL-6, tPAI-1, TNF” value in series [3] (day 57, 77 and 108) is “no significant effects”. Besides, the plasma resistin result in series [3] (day 77 and 108) is “significantly higher”. Further, the “24 hour food and water intake, urine and faeces production (metabolic cages)” value in series [3] (study day 68) is “no significant effects”. For the same substance, the “disease recovery (conclusion)” value in series [4] is “active in enhancing diseases recovery”. Besides, the body weights entry in series [4] (TNBS induced weight loss) is “either prevented the weight loss or ameliorated the symptoms and supported recovery”. For the same substance, the clinical score entry in series [4] (any dose, route or time schedule (single dose or daily dose)) was “an effect equivalent to or better than the one observed with the commonly used reference drug sulfasalazine”. In addition, in series [4] (mouse, in vivo), the clinical signs result is reported as “No abnormalities were observed” and the mortality rate result is on record as “No mortality was recorded”.
